Assay results taken from patent publication US20060177374A1, “Treatment of cancer with active vitamin D compounds in combination with radiotherapeutic agents and treatments” (Novacea, Inc., priority 2003, published 2006).

What was measured:
[1] = in vivo; cited from earlier work
[2] = Solubility study of calcitriol in each formulation (light microscope); assay type: physicochemical; settings: heated to 50° C., cooled to room temperature, highest concentration tested
Experimental: To further assess the formulations of calcitriol, a solubility study was conducted to evaluate the amount of calcitriol soluble in each formulation. Calcitriol concentrations from 0.1 to 0.6 μg calcitriol/mg formulation were prepared by heating the formulations to 50° C. followed by addition of the appropriate mass of calcitriol. The formulations were then allowed to cool to room temperature and the presence of undissolved calcitriol was determined by a light microscope with and without polarizing light. For each formulation, calcitriol was soluble at the highest concentration tested, 0.6 μg calcitriol/mg formulation.

SMILES | Hypercalcemic effect compared to calcitriol [1] | Calcitriol soluble in formulation [2]
C=C1/C(=C\C=C2/CCC[C@]3(C)C([C@H](C)CC#CC(C)(C)O)=CC[C@@H]23)C[C@@H](O)C[C@@H]1O [Ro23-7553] | reduced hypercalcemic effect | –
C=C1/C(=C\C=C2/CCC[C@]3(C)[C@@H]([C@H](C)CCCC(C)(C)O)CC[C@@H]23)C[C@@H](O)C[C@@H]1O [calcitriol, 1α,25-dihydroxyvitamin D3] | – | ≥ 0.6 μg calcitriol/mg formulation
